Data on four compounds can be found in ChEMBL document CHEMBL1201862, “PubChem BioAssay data set” (2004).

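Cells were grown in 96-well plates and exposed to each compound for 48 hours at five concentrations; endpoints were interpolated linearly between bracketing concentrations, or set to the highest concentration if not reached. GI50 is the concentration that inhibits growth by half.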 Calls of active or inactive are those of the source. Rule as the data show it: active = GI50 up to about 1.1 µM and inactive = higher.

Holding throughout (assay): NCI anticancer screen, dose series, 48 h
Test [1] has as its system OVCAR-5.
For test [2], the system named is HOP-92.
In test [3] the test system is SF-268.
The test system of test [4] is KM12.
For test [5], the system named is NCI-H460.
Test [6] concerns SN12C.
Test [7] relates to K562.
Test [8] relates to HCT-15.
Test [9] concerns HCC 2998.
For test [10], the system named is HL-60.
The test system of test [11] is MOLT-4.
Test [12] relates to SW-620.
Test [13] concerns CAKI-1.
Test [14] deals with NCI-H23.
Test [15] relates to SNB-19.
The test system of test [16] is HCT-116.
The test system of test [17] is RPMI-8226.
In test [18] the test system is UACC-62.
Test [19] deals with UACC-257.

On to `CC(N)Cc1ccc(Cl)cc1` (stereo unspecified), for which the GI50 in test [1] was 58.5 µM (inactive); in test [2] it was 50.8 µM (inactive); in [3] it was > 100 µM (inactive); in test [4], > 100 µM (inactive); in test [5], 50 µM (inactive); in test [6], > 100 µM (inactive). Also, the GI50 is 50.6 µM (inactive) in [7]; 51.6 µM in test [8]; > 100 µM (inactive) in test [9]; 37.6 µM (inactive) in test [10]; 68.9 µM (inactive) in [11]; > 100 µM (inactive) in test [12]. Besides, the GI50 in [13] is > 100 µM (inactive); in test [14], 39.5 µM (inactive); in [15], > 100 µM (inactive); in [16] it was 41 µM (inactive); in test [17], > 100 µM (inactive); in test [18], > 100 µM (inactive). In addition, the GI50 in test [19] was > 100 µM (inactive).

For `COC(=O)c1c(C)cccc1/C=C1\Cc2cc(C)cc(C)c2C1=O`, the GI50 in [1] is > 100 µM (inactive); in [2], 17.9 µM (inactive); in [3] it was 30.8 µM (inactive); in [4], > 100 µM (inactive); in test [5], 98.4 µM (inactive); in test [6] it was > 100 µM (inactive). Moreover, the GI50 was > 100 µM (inactive) in test [7]; above 100 µM in test [8]; 82.2 µM (inactive) in [9]; > 100 µM (inactive) in test [10]; > 100 µM (inactive) in test [11]; > 100 µM (inactive) in [12]. Also, the GI50 in test [13] is > 100 µM (inactive); in [14] it was 51.1 µM (inactive); in [15] it was 18.5 µM (inactive); in test [16], 36.8 µM (inactive); in [17] it was > 100 µM (inactive); in [18], 10 µM (inactive). Further, in [19], the GI50 was > 100 µM (inactive).

Take `COc1ccc2c(c1)C(=O)N1CCOC1C2C(=O)O` (stereo unspecified): the GI50 in test [1], in test [2], in test [3], in test [4], in test [5] and in test [6] was > 100 µM (inactive) in each case. In addition, the GI50 in test [7] was > 100 µM (inactive); in test [8], above 100 µM; in test [9], > 100 µM (inactive); in test [10], > 100 µM (inactive); in [11] it was > 100 µM (inactive); in test [12], > 100 µM (inactive). Also, the GI50 in test [13], in [14], in [15], in test [16], in [17] and in test [18] was > 100 µM (inactive) throughout. In test [19], the GI50 was > 100 µM (inactive).

Take `N#C/C(=C\c1cc(OCc2ccccc2)c(OCc2ccccc2)cn1)C(N)=O`: the GI50 is > 100 µM (inactive) in test [1]; 85.7 µM (inactive) in test [2]; > 100 µM (inactive) in [3]; > 100 µM (inactive) in test [4]; > 100 µM (inactive) in [5]; > 100 µM (inactive) in [6]. The GI50 in test [7] was 26.2 µM (inactive); in test [8], above 100 µM; in [9], > 100 µM (inactive); in [10], 16 µM (inactive); in [11] it was 23.3 µM (inactive); in [12], > 100 µM (inactive). The GI50 in test [13] was > 100 µM (inactive); in test [14] it was > 100 µM (inactive); in [15], > 100 µM (inactive); in [16], 35.5 µM (inactive); in test [17], 36.6 µM (inactive); in test [18], > 100 µM (inactive). For the same compound, the GI50 in test [19] was > 100 µM (inactive).
